ChEMBL document CHEMBL4257517, “Elucidation of fluorine's impact on pKa and in vitro Pgp-mediated efflux for a series of PDE9 inhibitors” (Medchemcomm, 2018)

How the values were obtained:
[1] = target: T1, High affinity cGMP-specific 3',5'-cyclic phosphodiesterase 9A (Homo sapiens, UniProt O76083); assay: Inhibition of PDE9 (unknown origin) at 10 uM using [3H]-cGMP as substrate after 1 hr by scintillation counting method relative to control
[2] = target: T1, High affinity cGMP-specific 3',5'-cyclic phosphodiesterase 9A; assay: Inhibition of PDE9 (unknown origin) using [3H]-cGMP as substrate after 1 hr by scintillation counting method
[3] = Acidic dissociation constant, pKa of compound at 10 uM by UV/Vis spectroscopy; type: physicochemical
[4] = Basic dissociation constant, pKa of compound at 10 uM by UV/Vis spectroscopy; type: physicochemical

T1 sequence (O76083 whole entry): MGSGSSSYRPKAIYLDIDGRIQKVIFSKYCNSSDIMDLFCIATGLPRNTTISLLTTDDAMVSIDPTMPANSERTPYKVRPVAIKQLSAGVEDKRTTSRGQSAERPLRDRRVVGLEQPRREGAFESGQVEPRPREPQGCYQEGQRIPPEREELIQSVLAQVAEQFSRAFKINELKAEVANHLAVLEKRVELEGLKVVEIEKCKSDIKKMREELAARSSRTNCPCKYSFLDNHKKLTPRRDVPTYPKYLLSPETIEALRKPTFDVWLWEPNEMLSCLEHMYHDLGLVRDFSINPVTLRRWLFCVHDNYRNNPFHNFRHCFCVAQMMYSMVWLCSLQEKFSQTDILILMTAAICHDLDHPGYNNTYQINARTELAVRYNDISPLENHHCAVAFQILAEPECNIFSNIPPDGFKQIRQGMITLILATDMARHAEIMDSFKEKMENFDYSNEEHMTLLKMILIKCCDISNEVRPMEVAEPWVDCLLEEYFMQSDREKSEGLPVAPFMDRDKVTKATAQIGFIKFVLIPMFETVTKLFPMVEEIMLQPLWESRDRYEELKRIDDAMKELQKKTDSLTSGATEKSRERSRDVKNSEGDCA

| inhibition [1] [%] | IC50 [2] [nM] | SMILES | further results |
| --- | --- | --- | --- |
| 22 | – | Cc1cnc(CN2C[C@@H](C)[C@](F)(c3nc4c(cnn4C4CCOCC4)c(=O)n3C)C2)cn1 | – |
| – | 36 | Cc1ncc(CN2C[C@@H](C)[C@H](c3nc4c(cnn4C4CCOCC4)c(=O)[nH]3)C2)cn1 | – |
| 14 | – | Cc1ncc(CN2C[C@@H](C)[C@](F)(c3nc4c(cnn4C4CCOCC4)c(=O)n3C)C2)cn1 | – |
| – | – | C[C@@H]1CN(Cc2ncccn2)C[C@H]1c1nc2c(cnn2C2CCOCC2)c(=O)[nH]1 [EDELINONTRINE] | pKa at 10 µM [3]: 9.6; pKa at 10 µM [4]: 6.8 |
| – | 17 | C[C@@H]1CN(Cc2ccc(F)cc2)C[C@H]1c1nc2c(cnn2C2CCOCC2)c(=O)[nH]1 | – |
| 66 | – | Cc1cnc(CN2C[C@@H](C)[C@H](c3nc4c(cnn4C4CCOCC4)c(=O)n3C)C2)cn1 | – |
| – | – | C[C@@H]1CN(Cc2ncccn2)C[C@@]1(F)c1nc2c(cnn2C2CCOCC2)c(=O)[nH]1 | pKa at 10 µM [3]: 8.4; pKa at 10 µM [4]: 5.6 |
| – | 59 | Cc1cnc(CN2C[C@@H](C)[C@H](c3nc4c(cnn4C4CCOCC4)c(=O)[nH]3)C2)cn1 | – |
